Measured values as given in paper doi:10.1101/2024.10.14.618300v1 (biorxiv, 2024).
pKd, pKi: −log10 of the molar value.

Key:
[1] = target: T1, mTSPO (recombinant mouse translocator protein) (Mus musculus, UniProt P50637); assay: […] NMR chemical shift titration; assay type: binding
[2] = target: T1, mTSPO (recombinant mouse translocator protein); assay: […] NMR competition with RF3458; assay type: binding

CN(C(=O)[C@H](Cc1ccc(F)cc1)NC(=O)c1ccccc1)c1ccccc1 [4b, RF3458]
pKd [1]: ~5.30

CC[C@@H](C)N(C)C(=O)c1cc2ccccc2c(-c2ccccc2Cl)n1 [(R)-PK 11195, 1-(2-Chlorophenyl)-N-methyl-N-(1-methylpropyl)-3-isoquinolinecarboxamide]
pKi [2]: ~4.05
